Assay results as given in patent US20260053931A1, “MDM2 TARGETING PROTACS” (THE WISTAR INSTITUTE OF ANATOMY AND BIOLOGY, priority 2023, published 2026).

Assays:
VHL complex = target: T1, VHL complex (Homo sapiens, UniProt P40337); test: Inhibition of HIF-1α peptide binding to the VHL complex using HTRF (Table 3); settings: mean ± S.E.M. of three replications; read-out: VHL-HIFa peptide IC50
T1 construct: purchased R&D systems E3-655-025
Description: Assays contained 2 nM of HIS-VHL complex (R&D systems, E3-655-025), 2 nM of biotin-hydroxyproline-HIF1α peptide (Biotin-[…] (SEQ ID NO: 2), X=hydroxyproline), 0.3 nM anti-HIS-Tb HTRF donor antibody and 4 nM streptavidin-d2 HTRF acceptor (PerkinElmer) in a final volume of 10 μL of 25 mM HEPES, pH 7.4, 150 mM NaCl, 5 mM DTT, 0.005% Tween20 in white low volume 384-well plates. Both HIS-VHL complex and biotin-HIF1α peptide were pre-incubated with their respective HTRF antibodies for 15 min. Test compounds were solubilized at 10 mM in DMSO and concentration series was added to the assay plate using the Echo 650 acoustic liquid handling system by direct dilution. The final amount of DMSO added to the assay was 100 nL […]. Compounds were pre-incubated with HIS-VHL complex before the addition of the biotin-HIF1α peptide. After a 2 hr incubation, the HTRF signal was measured using the ClarioStar plate reader (BMG Labtech). […] IC50 values were determined from nonlinear regression fits of a data to a four parameter dose-response equation using XLFit (IDBS). Data are the means±S.E.M. of three replications. The data is described in Table 3 above.

MDM2-p53 = MDM2-p53 (Homo sapiens, UniProt Q00987); test: Inhibition of MDM2 binding to p53 using HTRF (Table 3); settings: mean ± S.E.M. of three replications
Sequence of MDM2-p53 (Q00987 whole entry): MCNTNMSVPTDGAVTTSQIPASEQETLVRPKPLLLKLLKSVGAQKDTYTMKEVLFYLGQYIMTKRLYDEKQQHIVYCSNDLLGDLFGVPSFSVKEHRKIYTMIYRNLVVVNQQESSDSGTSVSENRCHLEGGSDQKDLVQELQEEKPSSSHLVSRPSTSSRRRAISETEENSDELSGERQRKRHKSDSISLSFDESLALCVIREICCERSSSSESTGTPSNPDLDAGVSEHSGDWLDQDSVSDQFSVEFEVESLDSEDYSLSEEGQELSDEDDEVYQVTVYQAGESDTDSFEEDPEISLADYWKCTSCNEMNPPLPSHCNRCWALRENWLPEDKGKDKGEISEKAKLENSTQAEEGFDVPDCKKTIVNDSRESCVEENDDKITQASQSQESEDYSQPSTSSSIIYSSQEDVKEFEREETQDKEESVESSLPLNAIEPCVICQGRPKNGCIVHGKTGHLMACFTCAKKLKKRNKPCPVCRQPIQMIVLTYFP
Description: Test compounds were solubilized at 10 mM in DMSO and concentration series was added to the assay plate using the Echo 650 acoustic liquid handling system by direct dilution. The final amount of DMSO added to the assay was 100 nL (0.1%). Compounds were pre-incubated with 5 μL of GST-MDM2 for 15-30 min before 5 μL of HIS-p53/anti-HIS-d2 was added to the assay. After a 2 hr incubation, the HTRF signal was measured using the ClarioStar plate reader (BMG Labtech). […] IC50 values were determined from nonlinear regression fits of a data to a four parameter dose-response equation using XLFit (IDBS). Data are the means±S.E.M. of three replications.

[1] = system: p53-null mouse sarcoma cells; test: Murine Mdm2+/+ p53-null sarcoma cells, Western blot and MTT; assay type: cell-based; settings: increasing concentrations, MTT assay, 48 hrs
TAp73 = test: Western blotting for TAp73 in TNBC cell lines; assay type: cell-based, human; settings: five TNBC cell lines
Description: FIGS. 28A-28L show TAp73 is activated by the MDM2-PROTAC YX-02-030 and mediates apoptosis of p53-inactivated TNBC cells. A-C, RNA-seq (triplicates) was performed on MDA-MB-231 cells treated with the MDM2-PROTAC YX-02-030 (6 μM, 16 hr) or DMSO vehicle control or expressing MDM2 shRNA or non-targeting control shRNA (48 hr). A, Pathway analysis using Hallmark gene signatures. B, Heatmap of p53 family target genes of individual samples (3 each). C, Spearman's correlation of differentially expressed p53 family target genes between PROTAC-treated relative to DMSO vehicle control and MDM2 shRNA relative to non-targeting shRNA control; Spearman's correlation coefficient (p) and P-value indicated. D, qRT-PCR analysis (triplicate, 6 μM, 16 hr) to validate RNA-seq results. […] I, ChIP for TAp73 was performed with MDA-MB-231 cells following treatment with the MDM2-PROTAC YX-02-030 (6 μM, 16 hr) or DMSO vehicle control, and enrichment of TAp73 (triplicate; first normalized to input DNA then IgG control) was determined at the loci indicated. J and K, After 48 hr, MDA-MB-231 cells expressing two independent TAp73 shRNA or non-targeting shRNA (shNT) control were treated with MDM2-PROTAC YX-02-030 or DMSO vehicle control (6 μM, 16 hr). p53/TAp73 target genes were evaluated by Western blotting (J) and qRT-PCR (K, triplicate). […]

T1 sequence (P40337 whole entry): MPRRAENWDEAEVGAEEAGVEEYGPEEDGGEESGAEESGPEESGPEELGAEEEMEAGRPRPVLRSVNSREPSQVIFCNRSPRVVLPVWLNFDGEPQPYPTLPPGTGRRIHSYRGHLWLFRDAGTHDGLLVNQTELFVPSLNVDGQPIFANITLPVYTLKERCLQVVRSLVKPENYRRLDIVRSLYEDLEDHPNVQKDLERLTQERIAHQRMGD
T1 sequence (Q15370 whole entry partner): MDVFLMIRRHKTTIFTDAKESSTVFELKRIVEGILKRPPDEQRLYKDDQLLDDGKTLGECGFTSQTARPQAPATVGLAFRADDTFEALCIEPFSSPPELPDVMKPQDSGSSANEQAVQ
T1 sequence (Q15369 whole entry partner): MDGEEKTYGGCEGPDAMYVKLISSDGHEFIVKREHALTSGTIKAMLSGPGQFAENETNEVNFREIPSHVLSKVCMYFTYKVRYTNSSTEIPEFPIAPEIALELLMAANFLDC
T1 sequence (Q13617 whole entry partner): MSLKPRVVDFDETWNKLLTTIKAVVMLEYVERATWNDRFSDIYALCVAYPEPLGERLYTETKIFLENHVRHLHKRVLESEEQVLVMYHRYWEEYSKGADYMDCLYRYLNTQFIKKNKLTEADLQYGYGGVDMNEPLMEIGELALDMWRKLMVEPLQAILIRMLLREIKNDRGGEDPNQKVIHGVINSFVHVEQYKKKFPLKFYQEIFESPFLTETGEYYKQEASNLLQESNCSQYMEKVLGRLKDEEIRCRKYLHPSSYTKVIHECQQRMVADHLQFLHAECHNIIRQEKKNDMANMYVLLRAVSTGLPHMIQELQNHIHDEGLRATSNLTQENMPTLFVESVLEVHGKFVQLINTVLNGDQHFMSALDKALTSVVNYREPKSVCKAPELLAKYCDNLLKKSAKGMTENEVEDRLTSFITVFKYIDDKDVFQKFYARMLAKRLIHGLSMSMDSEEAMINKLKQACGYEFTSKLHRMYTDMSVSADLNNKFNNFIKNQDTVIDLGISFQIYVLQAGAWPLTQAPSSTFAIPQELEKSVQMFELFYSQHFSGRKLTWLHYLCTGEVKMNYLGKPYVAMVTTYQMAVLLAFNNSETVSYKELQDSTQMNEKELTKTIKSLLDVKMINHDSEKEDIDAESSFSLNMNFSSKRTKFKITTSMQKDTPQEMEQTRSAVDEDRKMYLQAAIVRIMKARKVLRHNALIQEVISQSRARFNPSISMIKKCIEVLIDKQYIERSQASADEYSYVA
T1 sequence (P62877 whole entry partner): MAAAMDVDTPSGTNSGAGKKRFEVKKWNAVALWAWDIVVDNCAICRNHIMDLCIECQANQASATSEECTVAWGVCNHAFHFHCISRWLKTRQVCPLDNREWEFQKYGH

Q: Which IC50 (VHL complex) does the source give for `CCOc1cc(C(C)(C)C)ccc1C1=N[C@@](C)(c2ccc(Cl)cc2)[C@@](C)(c2ccc(Cl)cc2)N1C(=O)N1CCN(CC(=O)O)CC1` (racemic) [YX-02-023, 2-(4-((4S,5R)-2-(4-(tert-butyl)-2-ethoxyphenyl)-4,5-bis(4-chlorophenyl)-4,5-dimethyl-4,5-dihydro-1H-imidazole-1-carbonyl)piperazin-1-yl)acetic acid] here?
A: Its IC50 is greater than 10000 nM.

Q: What about the IC50 (MDM2-p53) of the same molecule?
A: Its IC50 is 11 ± 1.3 nM.

Q: And the “killing of p53-null sarcoma cells” value [1]?
A: Its value is “not”.

Q: How did the TAp73 protein level (TAp73) turn out when `CCOc1cc(C(C)(C)C)ccc1C1=NC(C)(c2ccc(Cl)cc2)C(C)(c2ccc(Cl)cc2)N1C(=O)N1CCN(CC(=O)NCCOCCOCCOCC(=O)N[C@H](C(=O)N2C[C@H](O)C[C@H]2C(=O)NCc2ccc(-c3scnc3C)cc2)C(C)(C)C)CC1` (stereo in doubt) [YX-02-030, (2S,4R)-1-((S)-2-(tert-butyl)-17-(4-((4S,5R)-2-(4-(tert-butyl)-2-ethoxyphenyl)-4,5-bis(4-chlorophenyl)-4,5-dimethyl-4,5-dihydro-1H-imidazole-1-carbonyl)piperazin-1-yl)-4,16-dioxo-6,9,12-trioxa-3,15-diazaheptadecanoyl)-4-hydroxy-N-(4-(4-methylthiazol-5-yl)benzyl)pyrrolidine-2-carboxamide] was run?
A: Its TAp73 protein level is “levels of TAp73 protein increased”.
